# Measurements as given in a melting point compilation (Tetko et al.; mined from patent text by program, amines drawn as free bases though some values may be those of a salt).
row,SMILES,melting point
1,COc1cccc(C(O)CN(C)Cc2sc3c(=O)c(C(=O)NCc4ccc(Cl)cc4)cn(C)c3c2COCC[Si](C)(C)C)c1 (stereo not given),150 to 152 °C
2,O=c1c(OC(F)F)cn(-c2cccc(C(F)(F)F)c2)nc1-c1ccnn1-c1ccccc1,132 to 134 °C
3,Cc1nnc(-c2ccc3ccn(-c4ccc(S(C)=O)cc4)c3c2)o1 (stereo not given),215 to 216 °C
4,COC(=O)c1ccc(COc2ccc3c(c2)CCN(C2CCN(C4CCC4)CC2)C3=O)cc1,165 to 166 °C
5,O=C1OCCC1NC(c1ccccc1)(c1ccccc1)c1ccccc1 (stereo not given),164 to 166 °C
6,CCOC(=O)c1ccc(/C=C(\C)C=O)c(OC)c1,59 to 61 °C
7,Cn1c(=O)oc2cc3c(cc21)OCC31C(=O)N(CC2CCCO2)c2ccccc21 (stereo not given),186 to 187 °C
8,Cc1cccc(-c2cccc3c2OC(CN)C3)c1C (stereo not given),> 225 °C
9,Fc1ccc(COc2ncc(F)c(NCOCc3ccccc3)n2)cc1,64 to 66 °C
10,CN1CCN(c2ncnc3oc(C4=CC=CN(N5CCOCC5)C4)c(-c4ccccc4)c23)CC1,255 to 257 °C
11,O=C(c1ccc(Br)cc1)N1CC(=O)N(CCc2ccccc2)C(=O)C1,110 to 112 °C
12,Cn1nc(-c2cc(C(=O)O)c(Cl)cc2Cl)c(Cl)c1OC(F)F,159 to 160 °C
13,CN(C)CCNc1ccc(Cl)nn1,86 to 92 °C
14,COc1ccc(Cn2c(=O)oc(=O)c3cc(Cl)cnc32)cc1,173 °C
15,CS(=O)(=O)c1ccc(C(=O)c2cc(-c3ccncc3)c(N3CCOCC3)s2)cc1,128 °C
16,NC(=O)OCCn1cc(C(=O)O)c(=O)c2cc(F)c(N3CCNCC3)c(F)c21,204 to 206 °C
17,CCC(=O)N1CCCSC1=C[N+](=O)[O-],84 to 86 °C
18,COc1c(-c2ccc3cc(NS(C)(=O)=O)ccc3c2)cc(N2CCCC2=O)cc1C(C)(C)C,229 to 230 °C
19,CN(c1cccc2cc(C3=NCC(C)(CN4CCNCC4)S3)[nH]c12)S(=O)(=O)c1cccs1 (stereo not given),178 to 180 °C
20,COC(=O)c1ccccc1Sc1ccccc1OC,82 to 84 °C
21,C=CCc1c(F)c(F)c(NN)c(F)c1F,79 to 81 °C
22,CC(=O)N1CCN(c2ccc(Nc3nc(N)c(C(=O)c4sccc4C)s3)cc2)CC1,290 to 292 °C
23,c1ccc2c(C3CN4CCC3CC4)c[nH]c2c1 (stereo not given),214 to 216 °C
24,O=c1c(Br)c(Br)cnn1-c1cccc(C(F)(F)F)c1,158 to 175 °C
25,CCCCC1OC(=O)c2cc(N)ccc21 (stereo not given),129 to 131 °C

row,SMILES,melting point
1,CCOC(=O)C1C(Cl)C(=O)N1c1ccc(OC)cc1 (stereo not given),99 to 100 °C
2,Cc1cc(NCCOC(=O)c2ccccc2)c2[nH]ncc2n1,136 to 138 °C
3,OC1CSC(Oc2ccc(-c3ccoc3)nc2)C(O)C1O (stereo not given),132 °C
4,"CCCCCC(NS(=O)(=O)c1ccc(Cl)cc1)c1ccc(CCCC(=O)O)cc1 (single isomer, unassigned; (-))",134 to 137 °C
5,CCN(C(=O)NC)c1ccc(Cl)nc1,135 to 136 °C
6,CCOC(=O)c1cn(C2CC2)c2c(F)c(N3CC(CNC(C)=O)C3)c(F)cc2c1=O,170 to 190 °C
7,CN1C(=O)C(C(=O)Nc2ccc(Cl)c(Cl)c2)Sc2ccccc21 (stereo not given),191 to 193 °C
8,COc1cc2c(cc1OC)C(C)CC(N)C(=O)N2 (stereo not given),103 °C
9,COC(=O)c1ccccc1S(=O)COc1ccc(Cl)cc1Cl (stereo not given),64 to 67 °C
10,CC(=O)c1ccc(NS(C)(=O)=O)c(Cl)c1,129 to 131 °C
11,CCOC(=O)CCc1cn(Cc2ccc(O)cc2)nc1O,143 to 144 °C
12,Cc1cc(-c2nc3cccnn3c2-c2ccnc(NC(=O)c3ccc4ncsc4c3)c2)ccc1F,252 to 253 °C
13,CCC(C)(C)Nc1cccnc1N(C)C1CCN(C(=O)c2cc3cc([N+](=O)[O-])ccc3[nH]2)CC1,206 to 208 °C
14,CC(C)CC(NC(c1ccc(-c2ccc(S(C)(=O)=O)cc2)cc1)C(F)(F)F)C(=O)NCC#N (stereo not given),140 °C
15,CCC1(CCCCCl)C(=O)Nc2ccc(F)cc21 (stereo not given),96 to 97 °C
16,CCCc1cc(N2CCC(NCC(O)c3nccc4ccccc34)CC2)nc2sc(C(N)=O)c(N)c12 (stereo not given),< 150 °C
17,Nc1nccc(OCC(F)(F)F)c1N,126 to 128 °C
18,COC(=O)c1ccc(O)c(OC2CCCC2)c1,73 to 75 °C
19,CCOC(=O)CC1CCC(CCNS(=O)(=O)c2ccc(Br)cc2)CC1 (stereo not given),62 °C
20,CCOc1nn(-c2ccc(C(F)(F)F)cn2)cc1CCCOc1cccc(OC)c1CCC(=O)O,110 to 111 °C
21,CCC(CC)(CCC#N)C(NC(=O)c1ccc(Cl)cc1)NC(=N[N+](=O)[O-])Nc1cccnc1 (stereo not given),100 to 110 °C
22,Cc1cccc(CN2NCC(=O)NC2=O)c1,158 °C
23,COc1ccccc1CC(=N)N1C[C@@H]2C(=O)CCC(c3ccccc3)(c3ccccc3)[C@@H]2C1,190 °C
24,O=S(=O)(OC(c1cccc(C(OS(=O)(=O)c2ccc(Cl)cc2)(C(F)(F)F)C(F)(F)F)c1)(C(F)(F)F)C(F)(F)F)c1ccc(Cl)cc1,125 °C
25,O=C(c1ccc(-c2ncc[nH]2)cc1)N1CCN(S(=O)(=O)c2ccc3cc(Cl)ccc3c2)CC1,159 to 161 °C

row,SMILES,melting point
1,CC(C)CN1C(=O)C(C)(C)C(=O)Nc2ccc(C#N)cc21,219 to 220 °C
2,Cc1ccc(C(=O)Nc2cc(-n3ccnc3C)cc(C(F)(F)F)c2)cc1Nc1nccc(-c2cccnc2)n1,242 to 247 °C
3,CCOC(=O)/C=C/c1ccccc1C1C(C(=O)OCC)=C(C)NC(C)=C1C(=O)OCC,130 to 131 °C
4,CC1CC(=O)NN=C1c1ccc(NC(=O)C2CC2(Cl)Cl)cc1 (stereo not given),252 to 253 °C
5,CCCCC(=N)NC(=O)NC1CCCCC1,146 to 148 °C
6,O=C(CBr)c1cc(OCc2ccccc2)c(OCc2ccccc2)c(OCc2ccccc2)c1,112 to 113 °C
7,CCCCCCc1ncc(/C=C(\Cc2cccs2)C(=O)O)n1Cc1ccc(C(=O)O)cc1,210 to 212 °C
8,O=Cc1ccc(=O)[nH]c1,222 to 224 °C
9,Nc1ncc2cc(-c3ccccn3)c(N)nc2n1,312 to 321 °C
10,O=c1ccc(-c2c(-c3ccccc3)nn3ccccc23)nn1[C@H]1CCNC1,144 to 146 °C
11,OCc1cn2c(n1)CN=C(c1ccccc1Cl)c1cc(Cl)ccc1-2,174 to 175 °C
12,CCCCCC(=O)Nc1ncc(OC)cn1,102 °C
13,Cc1ccc(NC(=O)c2cccc(N(C)C)c2)cc1NC(=O)c1ccc(N(C)CCCN(C)C)cc1,178 to 179 °C
14,Cn1cc(-c2cccc(Cl)c2)c(=O)o1,131 °C
15,c1ccc2c(c1)NCc1nnnn1-2,149 to 151 °C
16,CCCn1cc(-c2ccncc2)cc(N)c1=O,171 to 173 °C
17,NS(=O)(=O)c1nc2cc(O)ccc2s1,224 °C
18,c1ccc(-c2nnc3cc(-c4cccnc4)c(OCc4ccccn4)nn23)cc1,206 °C
19,Nc1nc(-c2ccc(Cl)cc2F)nc(C(=O)O)c1Cl,194 to 196 °C
20,CC(C)(C)OC(=O)NC(Cc1ccccc1)C(=O)Oc1ccc(/C=c2\[nH]c(=O)/c(=C/c3ccccc3)[nH]c2=O)nc1 (stereo not given),188 °C
21,CCCC(=O)NCc1nc(-c2ccc3c(c2)Nc2ccccc2S3)cs1,218 to 220 °C
22,O=C(O)/C=C/C(=O)/C=C/c1ccc(F)cc1,160 to 162 °C
23,CCOC(=O)c1cnoc1-c1ccc(OC)cc1,54 to 55 °C
24,COC(=O)COc1ccc(-c2ccc(C(=O)OCc3ccccc3)cc2)cc1-c1ccc2c(c1)C(C)(C)CCC2(C)C,104 to 106 °C
25,COC(=O)Nc1nc2cc(SCC3(C)CC3(Cl)Cl)ccc2[nH]1 (stereo not given),175 to 178 °C

row,SMILES,melting point
1,CC(=O)N(c1ccccc1)c1ccccc1-c1ccc(I)cc1,135 to 136 °C
2,S=C1CNC(=S)c2cc(Cl)ccc2N1,273 to 274 °C
3,CC(C)(O)CN1CCN(c2ccc3nc(-c4cccs4)c(-c4ccncc4)n3n2)CC1,165 to 168 °C
4,Clc1ccc(Oc2nc(Cl)nc(Cl)n2)c(Cl)c1,120 to 122 °C
5,COc1ccc(Cn2nc(C3CCN(CCc4c(C)nc5n(c4=O)CCS5)CC3)c3ccc(F)cc32)cc1,146 °C
6,CC(C)(C)NC(=O)C(C#N)C(=O)C1CC1 (stereo not given),97 to 98.5 °C
7,CCCn1c(COC)nc2c(N)nc3ccc(OCCN4CCCCC4)cc3c21,160 to 162 °C
8,N#CCCNC(=O)c1cccc(-c2cccc3nn(Cc4cccc(C(F)(F)F)c4)cc23)c1,187 to 188 °C
9,Nc1cccc(-c2nc(-c3cccnc3)no2)c1,161 to 163 °C
10,CCOC(=O)C1=C(C)NC(=O)N(C(=O)CC)C1c1cccc([N+](=O)[O-])c1 (stereo not given),152 to 154 °C
11,O=S1(=O)CCC(c2ccccc2)(c2ccccc2)[C@@H]2CN(Cc3ccccc3)C[C@@H]21 (racemic),186 °C
12,NC(=O)c1ccc(F)c2c1CC(N(CCC(=O)c1c[nH]c3ccc(F)cc13)C1CCC1)CO2 (stereo not given),139 °C
13,O=S(=O)(c1ccc(S)cc1)c1ccc(S)cc1,138 to 140 °C
14,CC(C)(C)[N+]([O-])=Cc1ccc(OCc2ccccc2)cc1,11 °C
15,"COc1cccc2c1C13CCN(C)C(C2)C1CCC(=O)C3 (single isomer, unassigned; (-))",145 to 147 °C
16,CC(=O)C(C(=O)c1ccccc1)N(C)C (stereo not given),72 to 74 °C
17,COCCCNS(=O)(=O)NC(=O)/C(C)=C/c1ccc(OCCOC)cc1Oc1ncc(C(F)(F)F)cc1Cl,121 to 122 °C
18,CCC(=O)Nc1cc(-c2ccnc(Nc3cccc(Cl)c3)n2)ccn1,215 to 216 °C
19,O=C(O)COCc1ccc(C=CC(=O)N2CCc3c([nH]c4ccccc34)C2c2ccc3c(c2)OCO3)cc1 (stereo not given),162 to 163 °C
20,CSCC(=O)Nc1ccc(C2=NNC(=O)CC2C)cc1 (stereo not given),220 to 222 °C
21,COc1c(N2CC3CCC(N)C3C2)c(F)cc2c(=O)n(N)c(=O)n(C3CC3)c12 (stereo not given),250 to 252 °C
22,COc1ccc(-c2cc3ccc(C(=O)O)cc3o2)cc1C12CC3CC(CC(C3)C1)C2,290 °C
23,COc1ccc(F)c2c1C[C@@H](NO)CO2,111 to 113 °C
24,CC1(C)C(C=C(F)C(=O)O)C1C(=O)OCc1ccccc1 (stereo not given),88 °C
25,C=CCOC(=O)C(C)N(C(=O)CCl)c1c(C)cccc1C (stereo not given),55 to 56 °C
